The Deep4Chem optical property database
One block for each compound: values may come before it.

Assay: solvent given as SMILES
[1] = in O=P(c1ccccc1)(c1ccccc1)c1ccc2oc3ccc(P(=O)(c4ccccc4)c4ccccc4)cc3c2c1

fluorescence lifetime (in CC#N): 7.5 ns
Compound: COc1ccccc1-c1nc(-c2ccccc2)c2ccccn12

fluorescence lifetime (in C1CCCCC1): 4.7 ns
Compound: c1cc2cccc3c4cccc5cccc(c(c1)c23)c54

fluorescence lifetime (in ClC(Cl)Cl): 26 ns
Compound: c1ccc2c(c1)ccc1ccc3ccc4ccccc4c3c12

fluorescence lifetime (in ClCCl): 3.95 ns
Compound: CC(C)c1cccc(C(C)C)c1N1C(=O)c2cccc3c(Oc4ccc(Cl)cc4)ccc(c23)C1=O

fluorescence lifetime (in CC#N): 3.02 ns
Compound: Cc1ccc(-c2sc(/C(C#N)=C/c3ccc(C#N)cc3)nc2-c2ccc(Cl)cc2)cc1

fluorescence lifetime (in CC#N): 0.6 ns
fluorescence lifetime (in CO): 9.2 ns
Compound: O=C1c2ccccc2-c2c(-c3ccccc3)c(-c3ccccc3)c(-c3ccccc3)c3cccc1c23

fluorescence lifetime (in C1CCOC1): 8.8 ns
fluorescence lifetime (in CN(C)C=O): 5.7 ns
Compound: O=C(O)c1c2ccccc2c(C(=O)O)c2ccccc12

fluorescence lifetime (in CC#N): 1 ns
Compound: c1ccc(-[c+]2c3ccccc3sc3ccccc32)cc1

The next lines start with the compound.

Compound: CCOC(=O)CCCCCn1c2ccc(OC)cc2c(=O)c2cc3c(cc21)c(=O)c1cc(OC)ccc1n3CCCCCC(=O)OCC
fluorescence lifetime (in CCO): 13.4 ns

Compound: CCC1(CC)c2cc(C#Cc3cccs3)ccc2-c2c1c1c(c3c2C(CC)(CC)c2cc(C#Cc4cccs4)ccc2-3)C(CC)(CC)c2cc(C#Cc3cccs3)ccc2-1
fluorescence lifetime (in C1CCOC1): 1.5 ns

Compound: Cc1ccc2c(c1)C1(c3ccccc3-c3ccccc31)c1cc(C)ccc1N2c1ccc(-c2nc(-c3ccccc3)cc(-c3ccccc3)n2)cc1
fluorescence lifetime [1]: 12 ns

Compound: CN(C)c1ccc(/C=C2\CC/C(=C\c3ccc(N(C)C)cc3)C2=O)cc1
fluorescence lifetime (in C1CCOC1): 0.6 ns
fluorescence lifetime (in C1COCCO1): 0.5 ns
fluorescence lifetime (in CC#N): 0.54 ns
fluorescence lifetime (in CC(C)=O): 0.74 ns
fluorescence lifetime (in CC(C)O): 0.68 ns
fluorescence lifetime (in CCO): 0.34 ns
fluorescence lifetime (in CCOC(C)=O): 0.59 ns
fluorescence lifetime (in CN(C)C=O): 0.92 ns
fluorescence lifetime (in CO): 0.29 ns
fluorescence lifetime (in CS(C)=O): 0.85 ns
fluorescence lifetime (in Cc1ccccc1): 0.48 ns
fluorescence lifetime (in ClC(Cl)(Cl)Cl): 0.37 ns
fluorescence lifetime (in ClC(Cl)Cl): 0.57 ns
fluorescence lifetime (in ClCCl): 0.77 ns
fluorescence lifetime (in S=C=S): 0.51 ns

Compound: Cc1cc(C)c2c(c1)c1cc(C)cc(C)c1n2-c1ccc2c(c1)Oc1cc3c(cc1B2c1c(C(C)C)cc(C(C)C)cc1C(C)C)B(c1c(C(C)C)cc(C(C)C)cc1C(C)C)c1ccccc1O3
fluorescence lifetime (in Cc1ccccc1): 21 ns
fluorescence lifetime [1]: 25 ns

Compound: c1ccc(-c2nnc(-c3cc(-c4nnc(-c5ccccc5)o4)c(-n4c5ccccc5c5ccccc54)cc3-n3c4ccccc4c4ccccc43)o2)cc1
fluorescence lifetime (in Cc1ccccc1): 4.9 ns
fluorescence lifetime (in O=P(c1ccccc1)(c1ccccc1)c1ccccc1Oc1ccccc1P(=O)(c1ccccc1)c1ccccc1): 8.6 ns

Compound: CCCCCCC(CCCCCC)N1C(=O)c2cccc3c(-c4ccc(N(C)C)cc4)ccc(c23)C1=O
fluorescence lifetime (in CCCCCC): 3.47 ns
fluorescence lifetime (in CCCCCCCCCCCCCC): 3.61 ns
fluorescence lifetime (in CCCCCCCCCCCO): 5.51 ns
fluorescence lifetime (in CCCCO): 3.5 ns
fluorescence lifetime (in Cc1ccccc1): 5.12 ns
fluorescence lifetime (in ClC(Cl)Cl): 6.99 ns

Compound: C[Si](C)(C)c1ccc(-c2ccc(-c3ccc(-c4ccc(-c5ccc([Si](C)(C)C)cc5)cc4)c4nsnc34)cc2)cc1
fluorescence lifetime (in C1CCOC1): 5.4 ns

Compound: COc1cc(N(c2ccc(C=C(C#N)C#N)c(OC)c2)c2ccc(C=C(C#N)C#N)c(OC)c2)ccc1C=C(C#N)C#N
fluorescence lifetime (in C1COCCO1): 0.65 ns
fluorescence lifetime (in CC#N): 0.14 ns
fluorescence lifetime (in CC(C)=O): 0.17 ns
fluorescence lifetime (in CCOC(C)=O): 0.32 ns
fluorescence lifetime (in CN(C)C=O): 0.06 ns
fluorescence lifetime (in CO): 0.12 ns
fluorescence lifetime (in Cc1ccccc1): 0.03 ns
fluorescence lifetime (in ClC(Cl)Cl): 0.14 ns
fluorescence lifetime (in ClCCl): 0.09 ns

Compound: Nc1ccc2c(c1)C(=O)c1ccc(N)cc1C2=O
fluorescence lifetime (in CC#N): 1.85 ns
fluorescence lifetime (in CC(C)O): 0.6 ns
fluorescence lifetime (in CCO): 0.47 ns
fluorescence lifetime (in CCOC(C)=O): 2.01 ns
fluorescence lifetime (in CO): 0.34 ns

Compound: Nc1cccnc1
fluorescence lifetime (in C1CCCCC1): 26.5 ns
fluorescence lifetime (in CC#N): 4.6 ns
fluorescence lifetime (in CCO): 6.5 ns
fluorescence lifetime (in CCOCC): 7.7 ns
fluorescence lifetime (in O): 21.1 ns

Compound: CC1(C)C(/C=C/C2=C(Oc3ccc(CCN=C=S)cc3F)C(=C/C=C3/N(CCCS(=O)(=O)[O-])c4ccccc4C3(C)C)/CCC2)=[N+](CCCS(=O)(=O)[O-])c2ccccc21
fluorescence lifetime (in CO): 0.843 ns

Compound: CCCCc1cc2cccc3cc(CCCC)c4cc(-c5cc6[b-]7c(c5)c(CCCC)cc5cccc(cc6CCCC)[n+]75)cc1[b-]4[n+]23
fluorescence lifetime (in C1CCCCC1): 20.5 ns

Compound: COc1ccc(C(=O)NN2C3=C(CC4=C2CCCC4=O)C(=O)CCC3)cc1
fluorescence lifetime (in CC#N): 6.2 ns
fluorescence lifetime (in CC(C)=O): 5.4 ns
fluorescence lifetime (in CCCCCO): 6.1 ns
fluorescence lifetime (in CO): 4.7 ns
fluorescence lifetime (in ClC(Cl)Cl): 6.2 ns
fluorescence lifetime (in ClCCl): 8.3 ns

Compound: c1ccc(-c2nnc(-c3ccc(N4c5ccccc5N(c5ccccc5)c5ccccc54)cc3)n2-c2ccccc2)cc1
fluorescence lifetime (in Cc1ccccc1): 3.9 ns
fluorescence lifetime (in c1cc(-n2c3ccccc3c3ccccc32)cc(-n2c3ccccc3c3ccccc32)c1): 3.5 ns

Compound: CCCCCCCCn1c(=O)c2cc3c(C#Cc4ccc(N(c5ccccc5)c5ccccc5)cc4)c4cc5c(=O)n(CCCCCCCC)c(=O)c5cc4c(C#Cc4ccc(N(c5ccccc5)c5ccccc5)cc4)c3cc2c1=O
fluorescence lifetime (in ClC(Cl)Cl): 3.4 ns
